Measurements reported in patent EP0232017A1 (priority 1986, dated 1987).

Test system: anaerobes and Gram positive aerobes
Type: cell-based
Details: dipped-disc Biospectrum assay at 1 mg/ml; result in words, zone sizes only in image Tables XIII-XV

| SMILES | activity vs. anaerobes and Gram positive aerobes |
| --- | --- |
| CC(=O)N1CC(C(C)C)C1=O (racemic) [2-azetidinone, 1-acetyl-3-(1-methylethyl)-, (±)-] | high activity |
| CCCCCC(=O)N1C(=O)[C@@H]2CCCC[C@@H]21 (relative stereo) [Example 94, N-Hexanoyl-cis-3,4-tetramethylene-2-azetidinone] | high activity |
| CCCCC(=O)N1CC(C(C)C)C1=O (racemic) [2-azetidinone, 3-(1-methylethyl)-1-(1-oxopentyl)-, (±)-] | high activity |
| CCCC(=O)N1CC(C(C)C)C1=O (stereo not drawn) [2-azetidinone, 3-(1-methylethyl)-1-(1-oxobutyl)-] | high activity |
| CCCCCC(=O)N1CC(C(C)C)C1=O (stereo not drawn) [2-azetidinone, 3-(1-methylethyl)-1-(1-oxohexyl)-] | high activity |
| CCCCCCCC(=O)N1CC(C(C)C)C1=O (racemic) [2-azetidinone, 3-(1-methlethyl)-1-(oxooctyl)-, (±)-] | high activity |
